In publication PMC9614482, “The superior salinity tolerance of bread wheat cultivar Shanrong No. 3 is unlikely to be caused by elevated Ta-sro1 poly-(ADP-ribose) polymerase activity” (The Plant Cell, 2022):

Key:
HsPARP1 (full-length) = target: T1, HsPARP1 (full-length) (Homo sapiens, UniProt P09874); assay type: biochemical; conditions: histones as substrates
T1 construct: gene PARP1; full-length protein supplied in the PARP Universal Colorimetric Assay Kit (Trevigen)

[1] = target: T2, HsPARP1 catalytic domain (PARP domain) (Homo sapiens, UniProt P09874, L713F); experiment: differential scanning fluorimetry; assay type: binding; conditions: 6(5H)-phenanthridinone concentrations above 2 µM
T2 construct: gene PARP1; recombinant, made in the authors' laboratory; only the L713F variant tested

AtPARP2 = target: T3, AtPARP2 (Arabidopsis thaliana, UniProt Q11207); experiment: immunoprecipitated GFP fusion, pan-ADP-ribose immunoblot; assay type: biochemical; conditions: 300 µM β-NAD+ in extraction buffer; auto-ADP-ribosylation, PAR chain formation
T3 construct: gene PARP2; GFP fusion, transiently expressed in Nicotiana benthamiana, immunoprecipitated with GFP-nanobody
T3 sequence (Q11207 whole entry, the tested form may be a part): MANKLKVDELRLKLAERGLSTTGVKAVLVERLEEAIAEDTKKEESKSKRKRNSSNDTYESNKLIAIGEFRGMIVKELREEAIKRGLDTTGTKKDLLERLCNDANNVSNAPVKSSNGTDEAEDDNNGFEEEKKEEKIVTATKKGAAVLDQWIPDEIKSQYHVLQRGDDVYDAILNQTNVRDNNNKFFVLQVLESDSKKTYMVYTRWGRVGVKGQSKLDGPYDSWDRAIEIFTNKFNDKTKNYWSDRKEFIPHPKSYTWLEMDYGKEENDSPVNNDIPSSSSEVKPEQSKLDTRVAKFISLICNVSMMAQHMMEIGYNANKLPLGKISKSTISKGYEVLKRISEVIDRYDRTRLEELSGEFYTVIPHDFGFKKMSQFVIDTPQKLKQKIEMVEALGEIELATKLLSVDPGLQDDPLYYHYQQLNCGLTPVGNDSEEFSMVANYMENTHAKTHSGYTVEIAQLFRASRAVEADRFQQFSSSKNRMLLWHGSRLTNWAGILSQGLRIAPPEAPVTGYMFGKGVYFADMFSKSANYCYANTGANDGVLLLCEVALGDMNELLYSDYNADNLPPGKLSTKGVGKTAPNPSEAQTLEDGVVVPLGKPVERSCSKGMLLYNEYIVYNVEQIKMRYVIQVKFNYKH

T2 sequence (P09874 662-1014 L713F limits assumed): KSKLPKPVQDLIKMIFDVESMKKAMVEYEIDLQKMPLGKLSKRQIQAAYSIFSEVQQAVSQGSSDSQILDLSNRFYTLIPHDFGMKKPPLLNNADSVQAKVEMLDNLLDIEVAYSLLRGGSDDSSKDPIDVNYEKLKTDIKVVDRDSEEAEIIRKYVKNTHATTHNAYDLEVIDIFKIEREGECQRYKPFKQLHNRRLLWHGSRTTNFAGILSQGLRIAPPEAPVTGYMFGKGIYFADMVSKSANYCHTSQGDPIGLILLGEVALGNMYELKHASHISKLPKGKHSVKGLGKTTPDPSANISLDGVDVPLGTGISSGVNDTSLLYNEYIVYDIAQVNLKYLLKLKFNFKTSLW
T1 sequence (P09874 2-1014): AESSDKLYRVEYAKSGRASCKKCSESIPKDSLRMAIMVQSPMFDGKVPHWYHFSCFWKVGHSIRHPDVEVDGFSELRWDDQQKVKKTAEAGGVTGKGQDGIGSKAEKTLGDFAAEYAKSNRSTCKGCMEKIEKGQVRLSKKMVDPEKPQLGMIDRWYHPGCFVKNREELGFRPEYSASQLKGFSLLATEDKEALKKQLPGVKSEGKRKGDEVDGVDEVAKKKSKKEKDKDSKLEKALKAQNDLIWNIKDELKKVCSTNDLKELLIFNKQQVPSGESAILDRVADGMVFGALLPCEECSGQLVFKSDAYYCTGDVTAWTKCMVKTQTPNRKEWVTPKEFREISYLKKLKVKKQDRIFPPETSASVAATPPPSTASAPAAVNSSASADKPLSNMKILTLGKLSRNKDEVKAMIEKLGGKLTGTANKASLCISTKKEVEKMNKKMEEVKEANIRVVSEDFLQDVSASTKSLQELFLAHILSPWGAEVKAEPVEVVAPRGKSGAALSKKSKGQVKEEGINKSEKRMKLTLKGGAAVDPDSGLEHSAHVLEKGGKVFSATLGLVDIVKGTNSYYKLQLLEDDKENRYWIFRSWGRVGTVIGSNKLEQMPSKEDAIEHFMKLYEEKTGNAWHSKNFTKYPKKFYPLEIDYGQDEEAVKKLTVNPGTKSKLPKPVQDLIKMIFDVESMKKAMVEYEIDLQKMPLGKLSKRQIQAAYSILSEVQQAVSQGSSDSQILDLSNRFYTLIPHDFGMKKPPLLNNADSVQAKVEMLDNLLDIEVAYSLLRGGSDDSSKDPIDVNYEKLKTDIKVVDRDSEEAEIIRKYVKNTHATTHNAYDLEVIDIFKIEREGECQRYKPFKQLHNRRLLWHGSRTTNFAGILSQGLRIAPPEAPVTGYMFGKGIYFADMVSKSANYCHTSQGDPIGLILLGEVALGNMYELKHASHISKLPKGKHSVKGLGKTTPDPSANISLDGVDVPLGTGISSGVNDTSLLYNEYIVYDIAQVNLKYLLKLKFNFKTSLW

NC(=O)c1cccc(N)c1 [3-aminobenzamide]
colorimetric PARP assay kit, ADP-ribosylation of histones (HsPARP1 (full-length)): 3-aminobenzamide (3AB) inhibited ADP-ribosylation of histones by HsPARP1

O=c1[nH]c2ccccc2c2ccccc12 [6(5H)-phenanthridinone]
dTm [1]: ~ +4 °C

NC(=O)c1ccc[n+]([C@@H]2O[C@H](COP(=O)(O)OP(=O)(O)OC[C@H]3O[C@@H](n4cnc5c(N)ncnc54)[C@H](O)[C@@H]3O)[C@@H](O)[C@H]2O)c1 [NAD+]
immunoprecipitated GFP fusion, pan-ADP-ribose immunoblot (AtPARP2): canonical Arabidopsis PARP2 enzyme formed PAR chains in a NAD^+-dependent manner
